Experimental data taken from ChEMBL document CHEMBL1629537, “Non-natural macrocyclic inhibitors of histone deacetylases: design, synthesis, and activity” (J Med Chem, 2010).

Legend:
Histone deacetylase 2 = Histone deacetylase 2 (Homo sapiens, UniProt Q92769)
Histone deacetylase 8 = molecular target: T1, Histone deacetylase 8 (Homo sapiens, UniProt Q9BY41); test: Inhibition of human HDAC8 by fluorimetric assay
T1 sequence (Q9BY41 whole entry): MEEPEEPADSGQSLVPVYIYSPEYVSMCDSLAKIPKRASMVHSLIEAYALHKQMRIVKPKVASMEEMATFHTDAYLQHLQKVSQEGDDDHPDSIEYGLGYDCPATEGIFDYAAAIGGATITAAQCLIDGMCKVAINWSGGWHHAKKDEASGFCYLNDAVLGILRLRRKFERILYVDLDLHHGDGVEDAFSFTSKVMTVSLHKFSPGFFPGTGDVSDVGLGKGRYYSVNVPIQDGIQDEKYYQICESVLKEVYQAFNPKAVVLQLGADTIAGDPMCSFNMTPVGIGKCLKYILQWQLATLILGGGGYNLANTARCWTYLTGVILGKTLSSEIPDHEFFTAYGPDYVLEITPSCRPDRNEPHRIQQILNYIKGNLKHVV

Histone deacetylase 11 = molecular target: T2, Histone deacetylase 11 (Homo sapiens, UniProt Q96DB2); test: Inhibition of human HDAC11 by fluorimetric assay
T2 sequence (Q96DB2 whole entry): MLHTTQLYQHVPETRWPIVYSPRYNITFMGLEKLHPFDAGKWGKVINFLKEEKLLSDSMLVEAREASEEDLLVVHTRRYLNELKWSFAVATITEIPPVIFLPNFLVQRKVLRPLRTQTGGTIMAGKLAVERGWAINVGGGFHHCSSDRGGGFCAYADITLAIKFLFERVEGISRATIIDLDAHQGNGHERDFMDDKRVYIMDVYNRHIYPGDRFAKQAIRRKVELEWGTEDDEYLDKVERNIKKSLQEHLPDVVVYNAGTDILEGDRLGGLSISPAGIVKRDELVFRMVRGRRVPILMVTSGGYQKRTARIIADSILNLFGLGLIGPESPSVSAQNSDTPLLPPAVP

[1] = molecular target: T3, Protein deacetylase HDAC6 (Homo sapiens, UniProt Q9UBN7); test: Inhibition of human HDAC6 by fluorimetric assay
T3 sequence (Q9UBN7 whole entry): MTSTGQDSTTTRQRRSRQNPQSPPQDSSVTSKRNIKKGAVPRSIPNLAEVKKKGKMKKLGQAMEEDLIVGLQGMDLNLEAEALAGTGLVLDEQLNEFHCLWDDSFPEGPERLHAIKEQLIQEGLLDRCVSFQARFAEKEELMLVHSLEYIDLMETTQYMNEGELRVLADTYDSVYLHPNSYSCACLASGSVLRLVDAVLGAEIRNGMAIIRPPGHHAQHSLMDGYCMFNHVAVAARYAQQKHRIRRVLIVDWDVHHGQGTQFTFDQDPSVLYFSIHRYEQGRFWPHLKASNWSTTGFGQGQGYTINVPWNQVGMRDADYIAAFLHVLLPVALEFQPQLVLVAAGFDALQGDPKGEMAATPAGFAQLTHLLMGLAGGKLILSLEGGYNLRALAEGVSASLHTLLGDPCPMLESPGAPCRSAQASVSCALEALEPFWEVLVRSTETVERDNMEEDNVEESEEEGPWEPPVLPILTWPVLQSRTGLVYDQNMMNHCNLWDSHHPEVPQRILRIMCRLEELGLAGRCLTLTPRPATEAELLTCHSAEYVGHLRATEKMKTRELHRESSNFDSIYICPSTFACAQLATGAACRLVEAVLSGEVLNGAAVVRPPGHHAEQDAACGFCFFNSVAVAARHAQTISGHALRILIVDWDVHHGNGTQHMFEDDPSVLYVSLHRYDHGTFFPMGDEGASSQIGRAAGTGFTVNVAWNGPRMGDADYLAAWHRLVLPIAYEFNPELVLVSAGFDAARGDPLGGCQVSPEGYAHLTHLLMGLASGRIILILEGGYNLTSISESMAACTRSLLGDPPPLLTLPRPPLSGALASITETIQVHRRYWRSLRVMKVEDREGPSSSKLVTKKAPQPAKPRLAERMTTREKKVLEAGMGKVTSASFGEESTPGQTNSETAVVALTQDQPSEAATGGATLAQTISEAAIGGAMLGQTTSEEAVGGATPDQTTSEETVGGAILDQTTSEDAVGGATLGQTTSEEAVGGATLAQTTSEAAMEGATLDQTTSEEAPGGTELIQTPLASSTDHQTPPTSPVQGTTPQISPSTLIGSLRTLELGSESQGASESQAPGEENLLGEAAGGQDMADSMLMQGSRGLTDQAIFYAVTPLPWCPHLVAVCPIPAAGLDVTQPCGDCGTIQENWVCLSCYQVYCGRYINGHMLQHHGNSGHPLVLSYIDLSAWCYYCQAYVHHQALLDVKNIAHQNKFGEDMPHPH

HCT-116 = test: cells; format: functional, cell-based; settings: Homo sapiens, HCT-116, 48 h
Histone deacetylase 4 = Histone deacetylase 4 (Homo sapiens, UniProt P56524); test: Inhibition of human HDAC4 by fluorimetric assay
Histone deacetylase 1 = Histone deacetylase 1 (Homo sapiens, UniProt Q13547); test: Inhibition of human HDAC1 by fluorimetric assay
Histone deacetylase 7 = molecular target: T4, Histone deacetylase 7 (Homo sapiens, UniProt Q8WUI4); test: Inhibition of human HDAC7 by fluorimetric assay
T4 sequence (Q8WUI4 whole entry): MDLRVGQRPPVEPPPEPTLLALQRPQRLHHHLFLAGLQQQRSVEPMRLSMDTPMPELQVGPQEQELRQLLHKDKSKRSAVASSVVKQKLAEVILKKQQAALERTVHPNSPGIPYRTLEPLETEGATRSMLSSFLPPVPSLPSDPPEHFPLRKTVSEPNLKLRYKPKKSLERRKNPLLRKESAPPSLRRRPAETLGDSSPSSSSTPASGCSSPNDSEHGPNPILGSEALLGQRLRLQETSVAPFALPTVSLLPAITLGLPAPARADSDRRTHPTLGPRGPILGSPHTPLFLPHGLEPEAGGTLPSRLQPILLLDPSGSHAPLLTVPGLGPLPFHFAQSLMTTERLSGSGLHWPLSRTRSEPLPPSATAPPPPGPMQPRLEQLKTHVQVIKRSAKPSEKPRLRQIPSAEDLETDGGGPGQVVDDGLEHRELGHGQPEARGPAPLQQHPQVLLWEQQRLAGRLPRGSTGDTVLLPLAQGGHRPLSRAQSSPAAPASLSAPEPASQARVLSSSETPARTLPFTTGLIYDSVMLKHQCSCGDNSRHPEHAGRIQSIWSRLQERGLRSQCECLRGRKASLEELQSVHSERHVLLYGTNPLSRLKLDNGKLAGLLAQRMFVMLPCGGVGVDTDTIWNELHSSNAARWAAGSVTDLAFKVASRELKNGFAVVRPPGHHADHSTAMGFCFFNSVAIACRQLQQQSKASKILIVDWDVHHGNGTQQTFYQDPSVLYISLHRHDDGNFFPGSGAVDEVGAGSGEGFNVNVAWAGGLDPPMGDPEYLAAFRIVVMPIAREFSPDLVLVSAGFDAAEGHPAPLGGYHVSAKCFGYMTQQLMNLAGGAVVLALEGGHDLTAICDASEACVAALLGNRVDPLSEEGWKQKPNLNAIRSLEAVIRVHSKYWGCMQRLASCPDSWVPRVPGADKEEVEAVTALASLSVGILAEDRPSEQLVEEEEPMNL

Histone deacetylase 5 = Histone deacetylase 5 (Homo sapiens, UniProt Q9UQL6); test: Inhibition of human HDAC5 by fluorimetric assay
NCI-H460 = test: cells; format: functional, cell-based; settings: Homo sapiens, NCI-H460, 48 h
[2] = molecular target: T5, Polyamine deacetylase HDAC10 (Homo sapiens, UniProt Q969S8); test: Inhibition of human HDAC10 by fluorimetric assay
T5 sequence (Q969S8 whole entry): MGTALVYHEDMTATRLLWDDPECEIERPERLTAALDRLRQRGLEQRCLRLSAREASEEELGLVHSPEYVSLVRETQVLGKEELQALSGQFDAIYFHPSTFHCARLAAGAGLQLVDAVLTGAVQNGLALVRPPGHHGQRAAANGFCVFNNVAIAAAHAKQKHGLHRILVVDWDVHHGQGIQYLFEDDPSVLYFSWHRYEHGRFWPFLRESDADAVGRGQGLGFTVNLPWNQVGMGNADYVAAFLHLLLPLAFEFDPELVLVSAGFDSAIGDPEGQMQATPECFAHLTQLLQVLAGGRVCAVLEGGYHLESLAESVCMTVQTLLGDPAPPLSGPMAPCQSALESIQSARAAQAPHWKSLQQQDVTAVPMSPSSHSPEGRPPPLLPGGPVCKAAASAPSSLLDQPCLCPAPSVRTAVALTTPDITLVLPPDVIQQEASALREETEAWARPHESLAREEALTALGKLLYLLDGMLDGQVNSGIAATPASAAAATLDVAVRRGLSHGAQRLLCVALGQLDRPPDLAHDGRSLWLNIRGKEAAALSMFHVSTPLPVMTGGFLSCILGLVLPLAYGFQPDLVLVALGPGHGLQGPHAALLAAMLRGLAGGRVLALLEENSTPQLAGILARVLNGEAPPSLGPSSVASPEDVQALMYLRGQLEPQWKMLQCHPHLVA

Histone deacetylase 3 = Histone deacetylase 3 (Homo sapiens, UniProt O15379)
Histone deacetylase 9 = Histone deacetylase 9 (Homo sapiens, UniProt Q9UKV0); test: Inhibition of human HDAC9 by fluorimetric assay
Histone deacetylase 9, sequence (Q9UKV0 whole entry): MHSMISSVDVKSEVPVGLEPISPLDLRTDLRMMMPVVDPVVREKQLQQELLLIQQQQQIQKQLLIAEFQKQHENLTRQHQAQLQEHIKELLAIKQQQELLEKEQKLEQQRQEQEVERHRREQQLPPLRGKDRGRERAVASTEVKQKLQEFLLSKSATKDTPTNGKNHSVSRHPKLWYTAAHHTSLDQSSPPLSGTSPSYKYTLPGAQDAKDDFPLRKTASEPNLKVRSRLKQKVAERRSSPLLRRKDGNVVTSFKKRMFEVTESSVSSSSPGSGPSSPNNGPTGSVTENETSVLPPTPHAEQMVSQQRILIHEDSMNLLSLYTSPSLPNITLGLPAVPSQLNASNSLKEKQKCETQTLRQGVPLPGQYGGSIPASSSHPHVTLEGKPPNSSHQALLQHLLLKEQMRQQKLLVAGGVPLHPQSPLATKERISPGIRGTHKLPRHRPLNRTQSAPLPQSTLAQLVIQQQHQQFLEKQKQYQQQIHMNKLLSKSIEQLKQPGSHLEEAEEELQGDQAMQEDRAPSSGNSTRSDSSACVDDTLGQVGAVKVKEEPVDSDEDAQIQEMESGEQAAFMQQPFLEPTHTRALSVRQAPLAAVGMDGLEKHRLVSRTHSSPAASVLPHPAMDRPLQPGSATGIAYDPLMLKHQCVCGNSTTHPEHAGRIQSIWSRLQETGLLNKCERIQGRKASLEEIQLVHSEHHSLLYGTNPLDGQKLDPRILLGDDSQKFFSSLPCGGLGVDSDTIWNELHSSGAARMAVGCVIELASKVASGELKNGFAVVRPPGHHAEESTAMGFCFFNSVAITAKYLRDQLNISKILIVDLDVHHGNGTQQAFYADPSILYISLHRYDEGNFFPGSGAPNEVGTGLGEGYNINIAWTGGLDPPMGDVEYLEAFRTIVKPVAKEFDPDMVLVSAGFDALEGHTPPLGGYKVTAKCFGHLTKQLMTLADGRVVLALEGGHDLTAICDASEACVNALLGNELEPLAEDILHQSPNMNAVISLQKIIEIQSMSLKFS

Histone deacetylase 4, sequence (P56524 whole entry): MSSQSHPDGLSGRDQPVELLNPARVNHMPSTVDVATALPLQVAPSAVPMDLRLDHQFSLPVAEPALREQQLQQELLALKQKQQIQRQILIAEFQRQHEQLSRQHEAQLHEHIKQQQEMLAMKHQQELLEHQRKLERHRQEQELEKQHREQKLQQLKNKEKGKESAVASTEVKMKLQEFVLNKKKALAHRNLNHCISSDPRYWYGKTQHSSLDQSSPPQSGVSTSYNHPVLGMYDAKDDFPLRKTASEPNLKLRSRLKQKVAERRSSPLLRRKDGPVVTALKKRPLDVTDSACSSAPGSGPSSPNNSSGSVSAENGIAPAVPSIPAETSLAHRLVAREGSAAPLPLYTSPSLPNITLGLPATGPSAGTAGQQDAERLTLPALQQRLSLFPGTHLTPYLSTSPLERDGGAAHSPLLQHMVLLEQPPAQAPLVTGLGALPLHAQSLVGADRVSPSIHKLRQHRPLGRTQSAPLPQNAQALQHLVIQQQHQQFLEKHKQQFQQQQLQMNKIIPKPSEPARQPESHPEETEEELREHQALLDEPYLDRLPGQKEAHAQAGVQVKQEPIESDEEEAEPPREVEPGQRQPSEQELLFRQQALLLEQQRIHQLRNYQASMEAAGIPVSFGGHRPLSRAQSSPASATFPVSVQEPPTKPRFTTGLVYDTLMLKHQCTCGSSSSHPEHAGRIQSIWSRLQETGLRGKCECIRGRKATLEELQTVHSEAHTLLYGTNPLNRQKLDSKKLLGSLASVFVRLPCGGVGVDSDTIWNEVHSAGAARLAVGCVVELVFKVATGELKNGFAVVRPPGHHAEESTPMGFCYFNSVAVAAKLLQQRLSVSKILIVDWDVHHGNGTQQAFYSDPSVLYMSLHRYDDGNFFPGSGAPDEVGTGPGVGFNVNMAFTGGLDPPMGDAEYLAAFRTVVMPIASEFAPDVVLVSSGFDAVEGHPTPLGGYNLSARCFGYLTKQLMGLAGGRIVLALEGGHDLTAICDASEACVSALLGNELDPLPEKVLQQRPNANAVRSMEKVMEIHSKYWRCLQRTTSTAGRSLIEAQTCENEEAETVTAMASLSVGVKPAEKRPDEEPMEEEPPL
Histone deacetylase 1, sequence (Q13547 whole entry): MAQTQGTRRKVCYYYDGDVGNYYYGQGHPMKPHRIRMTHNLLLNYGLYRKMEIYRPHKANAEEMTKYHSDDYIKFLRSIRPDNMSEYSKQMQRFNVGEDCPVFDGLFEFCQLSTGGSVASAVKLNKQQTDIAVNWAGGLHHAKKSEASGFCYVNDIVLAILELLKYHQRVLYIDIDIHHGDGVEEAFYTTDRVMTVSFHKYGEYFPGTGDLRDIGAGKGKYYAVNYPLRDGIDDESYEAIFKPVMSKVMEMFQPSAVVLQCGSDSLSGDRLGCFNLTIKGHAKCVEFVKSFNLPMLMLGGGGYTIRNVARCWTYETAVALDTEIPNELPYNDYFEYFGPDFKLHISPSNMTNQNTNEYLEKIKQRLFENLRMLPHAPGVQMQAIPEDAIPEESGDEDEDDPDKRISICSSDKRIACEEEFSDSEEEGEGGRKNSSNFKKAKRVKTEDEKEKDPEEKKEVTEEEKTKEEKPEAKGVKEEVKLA
Histone deacetylase 2, sequence (Q92769 whole entry): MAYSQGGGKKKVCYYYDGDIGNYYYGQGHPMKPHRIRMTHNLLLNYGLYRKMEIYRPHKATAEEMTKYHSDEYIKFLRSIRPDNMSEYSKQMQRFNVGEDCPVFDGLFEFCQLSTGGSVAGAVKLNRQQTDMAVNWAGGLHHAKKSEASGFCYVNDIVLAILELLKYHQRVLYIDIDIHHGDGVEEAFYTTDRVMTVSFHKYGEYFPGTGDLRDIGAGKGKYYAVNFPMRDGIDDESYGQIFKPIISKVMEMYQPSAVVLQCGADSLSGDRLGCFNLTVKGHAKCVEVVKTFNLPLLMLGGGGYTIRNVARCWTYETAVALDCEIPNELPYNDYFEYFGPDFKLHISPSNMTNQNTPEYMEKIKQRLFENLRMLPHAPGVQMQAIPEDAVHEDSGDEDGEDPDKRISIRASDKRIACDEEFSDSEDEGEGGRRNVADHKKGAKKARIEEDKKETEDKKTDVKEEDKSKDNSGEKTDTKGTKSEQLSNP
Histone deacetylase 5, sequence (Q9UQL6 whole entry): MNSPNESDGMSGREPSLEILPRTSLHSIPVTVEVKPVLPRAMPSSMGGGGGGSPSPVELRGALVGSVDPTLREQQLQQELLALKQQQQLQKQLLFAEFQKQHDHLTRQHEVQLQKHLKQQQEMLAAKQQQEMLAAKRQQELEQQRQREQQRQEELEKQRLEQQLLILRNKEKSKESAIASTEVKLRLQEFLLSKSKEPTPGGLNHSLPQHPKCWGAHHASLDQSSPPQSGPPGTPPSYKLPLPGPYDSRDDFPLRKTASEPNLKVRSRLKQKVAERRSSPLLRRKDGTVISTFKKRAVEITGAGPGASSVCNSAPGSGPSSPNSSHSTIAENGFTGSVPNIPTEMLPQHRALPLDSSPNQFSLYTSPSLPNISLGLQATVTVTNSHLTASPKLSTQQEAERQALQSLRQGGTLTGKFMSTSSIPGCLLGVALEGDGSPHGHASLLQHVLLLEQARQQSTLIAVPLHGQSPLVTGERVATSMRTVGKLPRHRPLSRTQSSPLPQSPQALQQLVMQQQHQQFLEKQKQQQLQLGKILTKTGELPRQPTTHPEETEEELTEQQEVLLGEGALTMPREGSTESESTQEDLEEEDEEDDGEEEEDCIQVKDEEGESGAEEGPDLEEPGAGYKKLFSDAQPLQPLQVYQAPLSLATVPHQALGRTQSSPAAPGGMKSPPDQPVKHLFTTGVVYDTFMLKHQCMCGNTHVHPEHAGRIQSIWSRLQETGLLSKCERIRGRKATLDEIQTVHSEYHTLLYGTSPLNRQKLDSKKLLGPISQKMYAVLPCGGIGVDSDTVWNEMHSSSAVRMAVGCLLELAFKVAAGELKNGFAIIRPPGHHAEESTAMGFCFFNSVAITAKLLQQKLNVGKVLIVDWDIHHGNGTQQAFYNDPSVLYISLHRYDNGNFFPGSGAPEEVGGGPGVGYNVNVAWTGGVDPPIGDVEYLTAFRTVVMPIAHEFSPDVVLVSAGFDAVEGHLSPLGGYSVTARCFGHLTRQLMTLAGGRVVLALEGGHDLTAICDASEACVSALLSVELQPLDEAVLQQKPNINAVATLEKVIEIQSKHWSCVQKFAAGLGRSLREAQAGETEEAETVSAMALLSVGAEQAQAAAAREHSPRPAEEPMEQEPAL
Histone deacetylase 3, sequence (O15379 whole entry): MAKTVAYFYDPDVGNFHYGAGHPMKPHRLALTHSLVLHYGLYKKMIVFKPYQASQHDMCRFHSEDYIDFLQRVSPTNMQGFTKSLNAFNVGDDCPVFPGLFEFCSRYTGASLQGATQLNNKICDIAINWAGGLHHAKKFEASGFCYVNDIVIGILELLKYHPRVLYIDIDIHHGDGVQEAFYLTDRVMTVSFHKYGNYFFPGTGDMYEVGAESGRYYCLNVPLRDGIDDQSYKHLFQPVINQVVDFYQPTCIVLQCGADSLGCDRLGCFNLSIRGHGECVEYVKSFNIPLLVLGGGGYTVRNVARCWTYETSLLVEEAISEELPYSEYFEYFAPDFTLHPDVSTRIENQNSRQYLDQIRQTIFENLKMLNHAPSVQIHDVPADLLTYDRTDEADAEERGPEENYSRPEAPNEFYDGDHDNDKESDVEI

| Compound | IC50 (Histone deacetylase 2) [nM] | IC50 (Histone deacetylase 8) [nM] | IC50 (Histone deacetylase 11) [nM] | IC50 [1] [nM] | IC50 (HCT-116) [nM] | IC50 (Histone deacetylase 4) [nM] | IC50 (Histone deacetylase 1) [nM] | IC50 (Histone deacetylase 7) [nM] | IC50 (Histone deacetylase 5) [nM] | IC50 (NCI-H460) [nM] | IC50 [2] [nM] | IC50 (Histone deacetylase 3) [nM] | IC50 (Histone deacetylase 9) [nM] |
| --- | --- | --- | --- | --- | --- | --- | --- | --- | --- | --- | --- | --- | --- |
| COc1cc2cc(c1)COc1ccccc1NC(=O)[C@@H](CCCCCC(=O)NO)OC/C=C\2 | 382 | 206 | 97.1 | 10.2 | 640 | 284 | 78.1 | 180 | 155 | 820 | 152 | 89 | 302 |
| COc1cc2cc(c1)COc1ccccc1NC(=O)C(CCCCCC(=O)NO)OC/C=C\2 (racemic) | 207 | 119 | 57.7 | 1.97 | 450 | 159 | 30.7 | 72.6 | 55.4 | 880 | 70.7 | 39.6 | 99.6 |
| O=C(CCCCCC1OCCCCCCCOc2ccccc2NC1=O)NO (racemic) | 1540 | 286 | 546 | 9.38 | 350 | 1250 | 439 | – | 695 | 620 | 958 | 240 | 1040 |
| COc1ccc(COC(CCCCCC(=O)NO)C(=O)Nc2ccccc2)cc1 (racemic) | 254 | 331 | 197 | 20.1 | – | 648 | 53.4 | – | 134 | – | 179 | 131 | 247 |
| O=C(CCCCCC1OCCCCCOc2ccccc2NC1=O)NO (racemic) | 1930 | 643 | 1210 | 15.6 | 690 | 2580 | 949 | 1720 | 1340 | 2000 | 1530 | 369 | 1900 |
| CC(/C=C/C(=O)NO)=C\[C@@H](C)C(=O)c1ccc(N(C)C)cc1 [TRICHOSTATIN] | – | – | – | – | 43 | – | – | – | – | 100 | – | – | – |
| O=C(CCCCCC1OCCCCCCOc2ccccc2NC1=O)NO (racemic) | 1570 | 1100 | 564 | 10.1 | 580 | 1200 | 560 | – | 878 | 1000 | 683 | 176 | 687 |
| COc1cc2cc(c1)COc1ccccc1NC(=O)[C@@H](CCCCCC(=O)NO)OCCC2 | 425 | 90.7 | 174 | 3.92 | 850 | 454 | 102 | – | 150 | 680 | 200 | 94.5 | 322 |
| COc1cc2cc(c1)COc1ccccc1NC(=O)[C@H](CCCCCC(=O)NO)OCCC2 | 268 | 136 | 103 | 3.43 | 520 | 118 | 72.2 | – | 109 | 740 | 190 | 93.6 | 123 |
| O=C(/C=C/c1ccc(CN(CCO)CCc2c[nH]c3ccccc23)cc1)NO [DACINOSTAT] | – | – | – | – | 18 | – | – | – | – | 70 | – | – | – |
| COc1cc2cc(c1)COc1ccccc1NC(=O)[C@H](CCCCCC(=O)NO)OC/C=C\2 | 158 | 198 | 22.9 | 0.84 | 690 | 79.4 | 31.7 | 27.8 | 62.2 | 1050 | 62.5 | 55.7 | 60.6 |
| COc1cc2cc(c1)COc1ccccc1NC(=O)C(CCCCCC(=O)NO)OCCC2 (racemic) | 793 | 444 | 226 | 8.44 | 690 | 447 | 204 | – | 341 | 870 | 320 | 246 | 336 |
